ChEMBL document CHEMBL1130593, “The importance of GLU361 position in the reaction catalyzed by cholesterol oxidase” (Bioorg Med Chem Lett, 1998)

What was measured:
Streptomyces [1] = experiment: Steady-state kinetic parameter on wild-type cholesterol oxidase
Streptomyces [2] = experiment: Steady-state kinetic parameter on E361D mutant cholesterol oxidase

Structure (SMILES) | Km (Streptomyces [1]) [µM] | k cat (Streptomyces [1]) [s⁻¹] | Km (Streptomyces [2]) [µM] | k cat (Streptomyces [2]) [s⁻¹]
CC(C)CCC[C@@H](C)[C@H]1CC[C@H]2[C@@H]3CC=C4CC(=O)CC[C@]4(C)[C@H]3CC[C@]12C | 6.2 | 64 | 1.4 | 0.2
CC(C)CCC[C@@H](C)[C@H]1CC[C@H]2[C@@H]3CC=C4C[C@@H](O)CC[C@]4(C)[C@H]3CC[C@]12C | 3 | 44 | 0.6 | 4.2
